# Laboratory results reported in patent US11638427B2, “Methods and compositions for altering secondary metabolites in plants” (Impello Biosciences, Inc, priority 2020, dated 2023).
# Assays:
# [1] = system: Sunrise Genetics' F2 variety; assay: MeJA vs MDJ weekly foliar spray, terpene analysis; assay type: in vivo, Cannabis spp.; settings: for eucalyptol / guaiol / α-bisabolol: 4.25 mM or 7.5 mM MDJ, or 7.5 mM MeJA; for D-Limonene / Linalool / cis-B-ocimene: all applications (4.25 mM and 7.5 mM)
# Experimental: (§1) To directly compare the efficacy of MeJA and MDJ, MeJA and MDJ were applied as a foliar spray once per week at either 4.25 mM or 7.5 mM concentrations to two high-CBD cannabis varieties. Clones from CBDRx Cherry variety and Sunrise Genetics' F2 variety were transplanted into 1-gallon pots with Red's soil and put into vegetative light cycle (18L/6D) on 4/12/21. All plants had two weeks in vegetative light cycle and were moved to flowering light cycle (12L/12D) on 4/26/21 for six weeks. Foliar applications started in week three of growth, [at flower initiation?]. Plants were then moved to a flowering light cycle. Each treatment group comprises three plants, including the control. Throughout the growing period, all plants were watered with JACK'S NUTRIENTS®. Plants were harvested on 6/7/21.
# (§2) Treatments: Each concentration was prepared from a one molar stock solution with TWEEN®-20. Sprays were prepared weekly and diluted with RO water. Each plant was sprayed till dripping, each receiving approximately 75-100 ml.
# CBDRx Cherry variety = assay: MeJA vs MDJ weekly foliar spray, terpene analysis; assay type: in vivo, Cannabis spp.; settings: 4.25 mM or 7.5 mM weekly foliar spray
# Experimental: as §1, §2
# Diaporthe rudis = assay: Mold growth on jasmonate-infused plates, mold 3 isolated from avocado; assay type: cell-based; settings: various concentrations in plates
# Experimental: (§3) MDJ (TCI, CAS No.: 24851-98-7) and CJ were infused into potato dextrose agar (PDA, VWR Cat No.: 90003-494) petri dishes (100×15 mm VWR, Cat No: 25384-094) at concentrations ranging from 1 mM, 4.25 mM, and 10 mM. Each treatment was prepared using a technical grade stock solution of pure chemical (CJ or MDJ) diluted with TWEEN®-20 (VWR, CAS No.: […]). Culturable oyster mushroom and seedling mold served to create fungal mycelial plugs using a sterile 1 mL pipette tip (Eppendorf, Cat No.: 022491458) held upside down. The tips were used to make circle excisions (i.e., fungal plugs) from a mycelial mat grown on PDA with no biochemical infusions. Fungal pugs were then transferred to PDA infused with varying concentrations of CJ or MDJ, and control plates (no CJ or MDJ infusion) to monitor fungal growth at room temperature over time.
# Based on the above results in Cannabis spp., additional fungi from various crops was sampled and tested. Plates comprising various concentrations of MDJ or MJ were prepared as described above.
# grey mold = assay: Fungal plug growth on jasmonate-infused PDA plates; assay type: cell-based, Rhizopus stolonifera; settings: for grey mold growth: 1 mM, 4.25 mM, 10 mM in PDA, 72 hours post inoculation
# Experimental: as §3
# A grey mold was also tested (FIGS. 10A-10D). All plates were generated and inoculated as described above and incubated at room temperature under identical conditions. Shown in […] are plates of grey mold 72 hours post fungal inoculation. Control plates are shown on the top row, followed by concentrations of MeJA (left) and MDJ (right) in duplicate at […] (FIG. 10A), 4.25 mM (FIG. 10B), and 10 mM (FIG. 10C). […] While it was initially hypothesized that the grey mod was a species of Botrytis, subsequent sequence analysis identified the mold as Rhizopus stolonifera.
# [2] = system: high-CBD hemp varieties Stormy Daniels and BaOX; assay: Field foliar applications of MDJ, MeJA and CJ on high-CBD hemp, cannabinoid analysis; assay type: in vivo, Cannabis spp.; settings: 7.5 mM foliar, four applications every 14 days in flowering
# Experimental: However, MDJ is not known to have any significant bioactivity in planta and is not an endogenously produced phytohormone in cannabis, so it was unknown whether MDJ would afford the same functionality as MeJA. Similarly, CJ has likewise been relatively under-investigated as a plant elicitor despite being a decarboxylation product of Jasmonic Acid. Here, the effect of MDJ and CJ were analyzed (in addition to MeJA) in order to determine any difference in the effect of these treatments on field-grown high-CBD hemp varieties.
# A hemp field experiment was conducted during the flowering phase of plant development in a private research field located in North Carolina. Sixty (60) plants from two distinct plant variety populations, Stormy Daniels and BaOX were selected for the trial. Each group of 60 plants was randomly divided into three groups of 20 plants and labeled accordingly to indicate the treatment group (T1, T2, T3). All plants were cultivated identically and subjected to approximately the same environmental conditions. Control, untreated plants were taken from the same field. Plants were treated according to treatment group, and each treatment group was subjected to four (4) applications of its respective treatment, with the first treatments applied on what was considered to be the first day of the flowering phase and repeated then again every successive 14 days up until just prior to harvest. Treatments were as follows: Control group=Control, Treatment 1=MDJ, Treatment 2=MeJA, Treatment 3=CJ.
# All treatments were prepared in a stock (concentrated, non-aqueous) form by Impello Biosciences in their lab in Loveland, Colo. and labelled respectively prior to the start of the experiment. All treatments were prepared at a high stock concentration that allowed dilution by the applicator with 2 liters of water to a final 7.5 mM concentration of active ingredient (i.e., MeJA, MDJ, or CJ) for each treatment; 15-mL centrifuge tubes were used as preparation and storage vessels for each of the treatments. Preparation of the stock solutions ensured that the applicator could store the solutions prior to use at 4° C. to minimize degradation and allow for dilution immediately prior to use. In the stock containers, 2 mL of TWEEN®-20 was added to each respective elicitor compound as an emulsifier in order to reach a final oil-in-water emulsion once diluted with a concentration of 7.5 mM active ingredient and 0.1% surfactant (i.e., TWEEN®-20) v/v.
# Plants were grown to maturity and 5 plants from each treatment and control group were sampled on Sep. 23, 2019. Care was taken to ensure samples were similar in appearance and spatial location between plants to minimize unintended variance in sample quality. The apical cola for each plant was harvested, and specifically, the top 3″ of the main cola. Yield data was not collected in this study, but no obvious differences in plant size or appearance were noted. Samples were submitted for chemical analysis (Avazyme, Inc, NC).
# All models were linear models fit with Group (treatment) as the independent variable and the response variable was the corresponding compound. Data was filtered and comparison between treatments were conducted using the emmeans package and Tukey HSD for post-hoc corrections. Statistical significance was defined by a level of significance of p<0.05 in the Tukey test. Total cannabinoids included CBN, Δ9-THC, CBDV, CBG, CBD, CBC, CBDA, CBGA, THCA, and THCV. Total THC and total CBD were calculated by accounting for the additional weight of the carboxyl group in the acidic forms and adding those to the neutral/non-acidic forms.
# [3] = 4.25 mM or 7.5 mM weekly foliar spray
Compound,eucalyptol [1],guaiol [1],α-bisabolol [1],D-Limonene [1],Linalool [1],cis-B-ocimene [1],camphene (CBDRx Cherry variety),total terpene content (CBDRx Cherry variety),α-pinene (CBDRx Cherry variety),β-pinene (CBDRx Cherry variety),growth of mold isolated from avocado (mold 3) (Diaporthe rudis),grey mold growth (grey mold),CBDA increase relative to the control group [2],THCA increase relative to the control group [2],Total CBD increase relative to the control group [2],Total Cannabinoids increase relative to the control group [2],Total THC increase relative to the control group [2],also measured
"CCCCCC1C(=O)CCC1CC(=O)OC (stereo not shown) [MDJ, methyl dihydrojasmonate]",Significant increases,Significant increases,Significant increases,significantly decreased,significantly increased,significantly decreased,significantly lowered,significantly lowered,significantly lowered,significantly lowered,effective at preventing the growth,inhibited,16.53%,19.69%,16.62%,16.38%,19.61%,"camphene [1, 3]: significantly lowered; p-pinene [1, 3]: significantly lowered; total terpene content [1, 3]: significantly lowered; α-pinene [1, 3]: significantly lowered; β-myrcene content [1, 3]: significantly lowered; β-myrcene content (CBDRx Cherry variety): significantly lowered; efficacy at inhibiting grey mold, MDJ compared with MeJA (grey mold; at the 1 mM concentration, 72 hours): more effective"
"CC/C=C\C[C@H]1C(=O)CC[C@@H]1CC(=O)OC [MeJA, Methyl Jasmonate]",Significant increases,Significant increases,Significant increases,significantly decreased,significantly increased,significantly decreased,neither concentration of MeJA significantly altered,neither concentration of MeJA significantly altered,neither concentration of MeJA significantly altered,neither concentration of MeJA significantly altered,effective at preventing the growth,inhibited,5.36%,5.36%,5.75%,5.64%,6.06%,"β-myrcene, α-pinene, camphene, β-pinene and total terpene content ([1]; only with the higher concentration of 7.5 mM): significant reduction; efficacy at inhibiting grey mold, MeJA compared with MDJ (grey mold; at 4.25 mM and 10 mM concentrations, 72 hours): more effective"
